Read-outs that look alike come from different tables or passages of the source.
Target: Lp(a) assembly in HepG2 cells overexpressing ApoA protein (Homo sapiens (Human), UniProt P08519)
Experiment: ELISA assay on screening Lp(a) assembly inhibition
Format: cell-based
Procedure: Test Example 1 and Methods of ELISA Assay on Screening Lp(a) Assembly Inhibition
• 1) Preheated the culture media, DPBS, and pancreatin in a 37° C. water bath in advance. • 2) Digested cells with pancreatin, transferred the cell suspension to a 15 mL centrifuge tube, and centrifuged at 1000 rpm for 5 min. • 3) Resuspended the cells with culture media and transferred the cell suspension to a new T75 cell culture flask. • 4) Cultured at 37° C. in a 5% CO2 incubator.
• 1) Seeded HepG2 cells overexpressing of ApoA protein into a 96-well plate at 100 μL per well and incubated overnight for attachment. • 2) Replaced with fresh culture media the next day, then added diluted compounds, and cultured the cell plate in a 5% CO2, 37° C. incubator for 24 h.
• 1) Added 10 μL of 1.5 M EACA to each well. • 2) Centrifuged at 1000 rpm for 1 min, and transferred 100 μL of cell culture supernatant to a pre-coated ELISA plate.
• 1) Added 100 μL of capture antibody to each well of a pre-coated ELISA plate and incubated overnight at 25° C. • 2) Added 300 μL of washing solution to each well and washed 5 times for 1 min each time. • 3) Added 100 μL of blocking solution to each well and incubated at 25° C. for 2 h. • 4) Added 300 μL of washing solution to each well and washed 5 times for 1 min each time. • 5) Added 100 μL of sample to each well and incubated at 25° C. for 1 h. • 6) Added 300 μL of washing solution to each well and washed 5 times for 1 min each time. • 7) Added 100 μL of detection antibody to each well and incubated at 25° C. for 1 h. • 8) Added 300 μL of washing solution to each well and washed 5 times for 1 min each time. • 9) Added 100 μL substrate solution (Color Reagent A: Color Reagent B, 1:1) to each well and incubated for 20 min at 25° C. in the dark. • 10) Added […] of stop solution to each well, gently blowed and sucked several times with the pipette tip, and read within 5 min.
[formula] • X: cpd concentration • Y: inhibition % • Top and Bottom: Plateaus in same units as Y • log IC50: same log units as X • HillSlope: Slope factor or Hill slope

[1] = HepG2 cells overexpressing ApoA protein, 24 h, ELISA of supernatant

Chain of Lp(a) assembly in HepG2 cells overexpressing ApoA protein (P08519 20-2040): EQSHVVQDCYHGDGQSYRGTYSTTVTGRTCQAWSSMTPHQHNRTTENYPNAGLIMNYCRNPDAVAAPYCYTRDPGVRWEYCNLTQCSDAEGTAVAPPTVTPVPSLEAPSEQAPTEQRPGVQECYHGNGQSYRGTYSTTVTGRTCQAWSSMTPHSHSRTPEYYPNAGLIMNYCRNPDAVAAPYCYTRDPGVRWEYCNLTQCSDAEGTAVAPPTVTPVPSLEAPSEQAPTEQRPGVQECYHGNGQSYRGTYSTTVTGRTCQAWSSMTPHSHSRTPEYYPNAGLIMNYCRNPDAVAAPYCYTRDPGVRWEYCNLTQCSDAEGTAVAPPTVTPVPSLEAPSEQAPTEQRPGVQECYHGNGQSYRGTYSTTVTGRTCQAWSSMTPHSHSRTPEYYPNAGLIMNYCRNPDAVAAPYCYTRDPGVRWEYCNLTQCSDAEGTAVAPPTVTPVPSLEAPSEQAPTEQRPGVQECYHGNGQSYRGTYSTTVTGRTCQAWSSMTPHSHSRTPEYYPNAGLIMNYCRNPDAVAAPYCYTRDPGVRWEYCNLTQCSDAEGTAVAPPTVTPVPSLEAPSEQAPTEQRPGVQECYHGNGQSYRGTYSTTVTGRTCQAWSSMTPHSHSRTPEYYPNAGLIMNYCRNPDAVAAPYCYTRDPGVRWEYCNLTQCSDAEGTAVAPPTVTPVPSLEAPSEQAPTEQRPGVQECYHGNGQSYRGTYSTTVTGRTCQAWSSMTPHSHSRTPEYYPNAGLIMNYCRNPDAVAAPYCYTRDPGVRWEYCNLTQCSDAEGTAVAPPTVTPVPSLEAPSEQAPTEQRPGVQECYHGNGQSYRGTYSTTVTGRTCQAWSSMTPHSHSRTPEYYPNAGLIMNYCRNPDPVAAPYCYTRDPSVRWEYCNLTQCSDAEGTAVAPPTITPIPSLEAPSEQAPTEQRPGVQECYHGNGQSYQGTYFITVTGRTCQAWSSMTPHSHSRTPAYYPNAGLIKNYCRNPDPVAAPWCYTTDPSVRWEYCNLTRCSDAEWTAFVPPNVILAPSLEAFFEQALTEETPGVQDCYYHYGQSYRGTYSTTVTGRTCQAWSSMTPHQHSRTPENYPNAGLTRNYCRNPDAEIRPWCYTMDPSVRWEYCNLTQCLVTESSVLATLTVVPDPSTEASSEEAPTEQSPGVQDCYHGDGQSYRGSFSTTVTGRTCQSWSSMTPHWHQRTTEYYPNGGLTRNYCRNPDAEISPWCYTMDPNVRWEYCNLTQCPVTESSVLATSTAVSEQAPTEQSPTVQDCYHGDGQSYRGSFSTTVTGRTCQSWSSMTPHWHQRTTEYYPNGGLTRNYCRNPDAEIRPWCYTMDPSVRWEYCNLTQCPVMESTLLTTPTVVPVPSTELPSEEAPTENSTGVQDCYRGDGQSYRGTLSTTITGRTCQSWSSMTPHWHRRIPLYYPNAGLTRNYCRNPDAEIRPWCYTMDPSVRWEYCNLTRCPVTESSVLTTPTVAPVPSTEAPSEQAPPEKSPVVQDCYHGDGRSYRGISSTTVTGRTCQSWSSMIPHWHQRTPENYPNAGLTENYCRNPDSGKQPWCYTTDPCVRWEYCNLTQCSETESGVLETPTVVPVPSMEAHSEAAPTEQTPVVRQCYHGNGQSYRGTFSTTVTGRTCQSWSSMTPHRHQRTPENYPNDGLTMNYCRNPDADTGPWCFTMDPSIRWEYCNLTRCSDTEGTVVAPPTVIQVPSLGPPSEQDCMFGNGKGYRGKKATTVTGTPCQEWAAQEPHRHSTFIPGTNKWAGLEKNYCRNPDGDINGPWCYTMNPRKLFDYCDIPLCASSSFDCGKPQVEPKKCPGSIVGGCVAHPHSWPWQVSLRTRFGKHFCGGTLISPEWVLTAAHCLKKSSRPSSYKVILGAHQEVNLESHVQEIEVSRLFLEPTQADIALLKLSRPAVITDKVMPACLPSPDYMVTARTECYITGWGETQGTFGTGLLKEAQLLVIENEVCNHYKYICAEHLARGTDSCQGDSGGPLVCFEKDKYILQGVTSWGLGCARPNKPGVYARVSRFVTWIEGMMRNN

SMILES	IC50 [1]	IC50
O=C(O)[C@@H](Cc1cc2cc(CN(Cc3ccc4sc(C[C@H](C(=O)O)[C@H]5CCNC5)cc4c3)Cc3ccc4sc(C[C@H](C(=O)O)[C@H]5CCNC5)cc4c3)ccc2s1)[C@H]1CCNC1 [Compound 104, (2S,2′S,2″S)-3,3′,3″-((nitrilotris(methylene))tris(benzo[b]thiophene-5,2-diyl))tris(2-((R)-pyrrolidin-3-yl)propanoic acid)]	1.04 nM	–
O=C(O)[C@@H](Cc1cccc(CCN(CCOc2cccc(C[C@H](C(=O)O)[C@H]3CCNC3)c2)C(=O)c2cccc(C[C@H](C(=O)O)[C@H]3CCNC3)c2)c1)[C@H]1CCNC1 [Compound 106, (S)-3-(3-(2-(3-((S)-2-carboxy-2-((R)-pyrrolidin-3-yl)ethyl)-N-(2-(3-((S)-2-carboxy-2-((R)-pyrrolidin-3-yl)ethyl)phenoxy)ethyl)benzamido)ethyl)phenyl)-2-((R)-pyrrolidin-3-yl)propanoic acid]	1.84 nM	–
O=C(O)[C@@H](Cc1cccc(CCN(CCc2cccc(C[C@H](C(=O)O)[C@H]3CCNC3)c2)C(=O)c2cccc(C[C@H](C(=O)O)[C@H]3CCNC3)c2)c1)[C@H]1CCNC1 [Compound 108, (2S,2′S)-3,3′-((((3-((S)-2-carboxy-2-((R)-pyrrolidin-3-yl)ethyl)benzoyl)azanediyl)bis(ethane-2,1-diyl))bis(3,1-phenylene))bis(2-((R)-pyrrolidin-3-yl)propanoic acid)]	1.16 nM	–
O=C(O)[C@@H](Cc1ncc(CN(Cc2cnc(C[C@H](C(=O)O)[C@H]3CCNC3)s2)Cc2cnc(C[C@H](C(=O)O)[C@H]3CCNC3)s2)s1)[C@H]1CCNC1 [Compound 121, (2S,2′S,2″S)-3,3′,3″-((nitrilotris(methylene))tris(thiazole-5,2-diyl))tris(2-((R)-pyrrolidin-3-yl)propanoic acid)]	–	1.53 nM
O=C(O)[C@@H](Cc1cccc(COc2cc(OCc3cccc(C[C@H](C(=O)O)[C@H]4CCNC4)c3)cc(OCc3cccc(C[C@H](C(=O)O)[C@H]4CCNC4)c3)c2)c1)[C@H]1CCNC1 [Compound 122, (2S,2′S,2″S)-3,3′,3″-(((benzene-1,3,5-triyltris(oxy))tris(methylene))tris(benzene-3,1-diyl))tris(2-((R)-pyrrolidin-3-yl)propanoic acid)]	1.87 nM	–
O=C(O)[C@@H](Cc1csc2ccc(CN(Cc3ccc4scc(C[C@H](C(=O)O)[C@H]5CCNC5)c4c3)Cc3ccc4scc(C[C@H](C(=O)O)[C@H]5CCNC5)c4c3)cc12)[C@H]1CCNC1 [Compound 128, (2S,2′S,2″S)-3,3′,3″-((nitrilotris(methylene))tris(benzo[b]thiophene-5,3-diyl))tris(2-((R)-pyrrolidin-3-yl)propanoic acid)]	1.34 nM	–
Cn1c(C[C@H](C(=O)O)[C@H]2CCNC2)nc2ccc(CN(Cc3ccc4nc(C[C@H](C(=O)O)[C@H]5CCNC5)n(C)c4c3)Cc3ccc4nc(C[C@H](C(=O)O)[C@H]5CCNC5)n(C)c4c3)cc21 [Compound 133, (2S,2′S,2″S)-3,3′,3″-((nitrilotris(methylene))tris(1-methyl-1H-benzo[d]imidazole-6,2-diyl))tris(2-((R)-pyrrolidin-3-yl)propanoic acid)]	0.94 nM	–
O=C(O)[C@@H](Cc1cccc(CN(CCOc2cccc(C[C@H](C(=O)O)[C@H]3CCNC3)c2)C(=O)CNc2cccc(C[C@H](C(=O)O)[C@H]3CCNC3)c2)c1)[C@H]1CCNC1 [Compound 134, (S)-3-(3-((2-((3-((S)-2-carboxy-2-((R)-pyrrolidin-3-yl)ethyl)benzyl)(2-(3-((S)-2-carboxy-2-((R)-pyrrolidin-3-yl)ethyl)phenoxy)ethyl)amino)-2-oxoethyl)amino)phenyl)-2-((R)-pyrrolidin-3-yl)propanoic acid]	0.85 nM	–
O=C(O)[C@@H](Cc1cccc(CN(CCOc2cccc(C[C@H](C(=O)O)[C@H]3CCNC3)c2)C(=O)COc2cccc(C[C@H](C(=O)O)[C@H]3CCNC3)c2)c1)[C@H]1CCNC1 [Compound 135, (S)-3-(3-(2-((3-((S)-2-carboxy-2-((R)-pyrrolidin-3-yl)ethyl)benzyl)(2-(3-((S)-2-carboxy-2-((R)-pyrrolidin-3-yl)ethyl)phenoxy)ethyl)amino)-2-oxoethoxy)phenyl)-2-((R)-pyrrolidin-3-yl)propanoic acid]	0.71 nM	–
O=C(O)[C@@H](Cc1cccc(CN(CCOc2cccc(C[C@H](C(=O)O)[C@H]3CCNC3)c2)C(=O)Oc2cccc(C[C@H](C(=O)O)[C@H]3CCNC3)c2)c1)[C@H]1CCNC1 [Compound 139, (S)-3-(3-(2-((3-((S)-2-carboxy-2-((R)-pyrrolidin-3-yl)ethyl)benzyl)((3-((S)-2-carboxy-2-((R)-pyrrolidin-3-yl)ethyl)phenoxy)carbonyl)amino)ethoxy)phenyl)-2-((R)-pyrrolidin-3-yl)propanoic acid]	0.66 nM	–
O=C(O)[C@@H](Cc1cccc(CCC(=O)N(CCOc2cccc(C[C@H](C(=O)O)[C@H]3CCNC3)c2)Cc2cccc(C[C@H](C(=O)O)[C@H]3CCNC3)c2)c1)[C@H]1CCNC1 [Compound 140, (S)-3-(3-(3-((3-((S)-2-carboxy-2-((R)-pyrrolidin-3-yl)ethyl)benzyl)(2-(3-((S)-2-carboxy-2-((R)-pyrrolidin-3-yl)ethyl)phenoxy)ethyl)amino)-3-oxopropyl)phenyl)-2-((R)-pyrrolidin-3-yl)propanoic acid]	0.79 nM	–

The next lines start with results.

IC50 [1]	SMILES	IC50
1.66 nM	O=C(O)[C@@H](Cc1cccc(CCN(CCc2cccc(C[C@H](C(=O)O)[C@H]3CCNC3)c2)C(=O)Cc2cccc(C[C@H](C(=O)O)[C@H]3CCNC3)c2)c1)[C@H]1CCNC1 [Compound 107, (2S,2′S)-3,3′-((((2-(3-((S)-2-carboxy-2-((R)-pyrrolidin-3-yl)ethyl)phenyl)acetyl)azanediyl)bis(ethane-2,1-diyl))bis(3,1-phenylene))bis(2-((R)-pyrrolidin-3-yl)propanoic acid)]	–
3.4 nM	O=C(CN(CCOc1cccc(C[C@H](C(=O)O)[C@H]2CCNC2)c1)CCOc1cccc(C[C@H](C(=O)O)[C@H]2CCNC2)c1)c1cccc(C[C@H](C(=O)O)[C@H]2CCNC2)c1 [Compound 112, (2S,2′S)-3,3′-(((((2-(3-((S)-2-carboxy-2-((R)-pyrrolidin-3-yl)ethyl)phenyl)-2-oxoethyl)azanediyl)bis(ethane-2,1-diyl))bis(oxy))bis(3,1-phenylene))bis(2-((R)-pyrrolidin-3-yl)propanoic acid)]	–
2.58 nM	O=C(O)[C@@H](Cc1cccc(CN2CCN(Cc3cccc(C[C@H](C(=O)O)[C@H]4CCNC4)c3)CC2)c1)[C@H]1CCNC1 [Compound 117, (2S,2′S)-3,3′-((piperazine-1,4-diylbis(methylene))bis(3,1-phenylene))bis(2-((R)-pyrrolidin-3-yl)propanoic acid)]	–
1.26 nM	O=C(O)[C@@H](Cc1cccc(CN(Cc2cccc(C[C@H](C(=O)O)[C@H]3CCNC3)c2)Cc2ccc3oc(C[C@H](C(=O)O)[C@H]4CCNC4)cc3c2)c1)[C@H]1CCNC1 [Compound 126, (2S,2′S)-3,3′-(((((2-((S)-2-carboxy-2-((R)-pyrrolidin-3-yl)ethyl)benzofuran-5-yl)methyl)azanediyl)bis(methylene))bis(3,1-phenylene))bis(2-((R)-pyrrolidin-3-yl)propanoic acid)]	–
1.45 nM	O=C(CN(Cc1cccc(C[C@H](C(=O)O)[C@H]2CCNC2)c1)Cc1cccc(C[C@H](C(=O)O)[C@H]2CCNC2)c1)c1cccc(C[C@H](C(=O)O)[C@H]2CCNC2)c1 [Compound 130, (2S,2′S)-3,3′-((((2-(3-((S)-2-carboxy-2-((R)-pyrrolidin-3-yl)ethyl)phenyl)-2-oxoethyl)azanediyl)bis(methylene))bis(3,1-phenylene))bis(2-((R)-pyrrolidin-3-yl)propanoic acid)]	–
0.88 nM	O=C(O)[C@@H](Cc1cccc(COCC2CN(Cc3cccc(C[C@H](C(=O)O)[C@H]4CCNC4)c3)CCN2Cc2cccc(C[C@H](C(=O)O)[C@H]3CCNC3)c2)c1)[C@H]1CCNC1 (stereo partly drawn) [Compound 132, (2S,2′S)-3,3′-(((2-(((3-((S)-2-carboxy-2-((R)-pyrrolidin-3-yl)ethyl)benzyl)oxy)methyl)piperazine-1,4-diyl)bis(methylene))bis(3,1-phenylene))bis(2-((R)-pyrrolidin-3-yl)propanoic acid)]	–
1.08 nM	O=C(O)[C@@H](Cc1csc(CN(Cc2cc(C[C@H](C(=O)O)[C@H]3CCNC3)cs2)Cc2cc(C[C@H](C(=O)O)[C@H]3CCNC3)cs2)c1)[C@H]1CCNC1 [Compound 137, (2S,2′S,2″S)-3,3′,3″-((nitrilotris(methylene))tris(thiophene-5,3-diyl))tris(2-((R)-pyrrolidin-3-yl)propanoic acid)]	–

— US20250179055A1, “Substituted 2-(pyrrolidine-3-yl)acetic acid derivative, preparation method and use thereof” (INNOVSTONE THERAPEUTICS LIMITED, priority 2023, published 2025)
